Measurements as given in PubChem BioAssay (NCI).
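Interpolation was linear, between the two tested concentrations surrounding the appropriate level; five concentrations were tested over 48 hours in 96-well plates. GI50 = concentration required for 50% inhibition of growth. TGI: total growth inhibition.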

What was measured:
Experiment in all cases: NCI anticancer screen, dose series, 48 h
NCI-H23 lung = tested on: NCI-H23 lung
COLO 205 colon = tested on: COLO 205 colon
MDA-MB-435 = tested on: MDA-MB-435
HS 578T breast = tested on: HS 578T breast
K-562 leukemia = tested on: K-562 leukemia
NCI/ADR-RES ovarian = tested on: NCI/ADR-RES ovarian
OVCAR-8 ovarian = tested on: OVCAR-8 ovarian
SK-MEL-5 melanoma = tested on: SK-MEL-5 melanoma
TK-10 renal = tested on: TK-10 renal
SR leukemia = tested on: SR leukemia
SW-620 colon = tested on: SW-620 colon
MOLT-4 leukemia = tested on: MOLT-4 leukemia
RPMI-8226 leukemia = tested on: RPMI-8226 leukemia
SK-OV-3 ovarian = tested on: SK-OV-3 ovarian
SF-268 CNS = tested on: SF-268 CNS
ACHN renal = tested on: ACHN renal
T-47D breast = tested on: T-47D breast
IGROV1 ovarian = tested on: IGROV1 ovarian
CCRF-CEM leukemia = tested on: CCRF-CEM leukemia
HCT-15 colon = tested on: HCT-15 colon
UACC-62 melanoma = tested on: UACC-62 melanoma
OVCAR-5 ovarian = tested on: OVCAR-5 ovarian
KM12 colon = tested on: KM12 colon
MDA-MB-231 breast = tested on: MDA-MB-231 breast
HL-60(TB) leukemia = tested on: HL-60(TB) leukemia
OVCAR-3 ovarian = tested on: OVCAR-3 ovarian
HT29 colon = tested on: HT29 colon
M14 melanoma = tested on: M14 melanoma
DU-145 prostate = tested on: DU-145 prostate
HOP-62 NSCLC = tested on: HOP-62 NSCLC
NCI-H460 lung = tested on: NCI-H460 lung
A498 renal = tested on: A498 renal
HCC-2998 colon = tested on: HCC-2998 colon
SN12C renal = tested on: SN12C renal
A549 NSCLC = tested on: A549 NSCLC
MCF7 breast = tested on: MCF7 breast
SF-539 CNS = tested on: SF-539 CNS
UACC-257 melanoma = tested on: UACC-257 melanoma
SNB-19 CNS = tested on: SNB-19 CNS
PC-3 prostate = tested on: PC-3 prostate
UO-31 renal = tested on: UO-31 renal
HCT-116 colon = tested on: HCT-116 colon
SNB-75 CNS = tested on: SNB-75 CNS
MALME-3M melanoma = tested on: MALME-3M melanoma
NCI-H522 lung = tested on: NCI-H522 lung
RXF 393 renal = tested on: RXF 393 renal
SF-295 CNS = tested on: SF-295 CNS
CAKI-1 renal = tested on: CAKI-1 renal
SK-MEL-28 melanoma = tested on: SK-MEL-28 melanoma
NCI-H226 lung = tested on: NCI-H226 lung
OVCAR-4 ovarian = tested on: OVCAR-4 ovarian
BT-549 breast = tested on: BT-549 breast
786-0 renal = tested on: 786-0 renal

Compound COc1cc(/C=C/C(=O)c2ccccc2)cc(OC)c1OC has a GI50 (NCI-H23 lung) of 7.45 µM, a TGI (NCI-H23 lung) of 23.3 µM and a GI50 (COLO 205 colon) of 9.32 µM. It also gave a TGI (COLO 205 colon) of 21.7 µM, a GI50 (MDA-MB-435) of 3.06 µM and a TGI (MDA-MB-435) of 11.3 µM. For the same compound, the GI50 (HS 578T breast) was 4.62 µM, the TGI (HS 578T breast) was 39.8 µM and the GI50 (K-562 leukemia) was 3.23 µM. For the same compound, the TGI (K-562 leukemia) was 10.7 µM, the GI50 (NCI/ADR-RES ovarian) was 3.38 µM and the TGI (NCI/ADR-RES ovarian) was 15 µM. For the same compound, the GI50 (OVCAR-8 ovarian) was 2.95 µM, the TGI (OVCAR-8 ovarian) was 11.8 µM and the GI50 (SK-MEL-5 melanoma) was 4.12 µM. For the same compound, the TGI (SK-MEL-5 melanoma) was 15 µM, the GI50 (TK-10 renal) was 10.2 µM and the TGI (TK-10 renal) was 22.2 µM. The GI50 (SR leukemia) was 2.33 µM, the TGI (SR leukemia) was 6.68 µM and the GI50 (SW-620 colon) was 2.48 µM. For the same compound, the TGI (SW-620 colon) was 7.2 µM, the GI50 (MOLT-4 leukemia) was 2.94 µM and the TGI (MOLT-4 leukemia) was 8.13 µM. The GI50 (RPMI-8226 leukemia) was 2.38 µM, the TGI (RPMI-8226 leukemia) was 6.29 µM and the GI50 (SK-OV-3 ovarian) was 4.42 µM. For the same compound, the TGI (SK-OV-3 ovarian) was 13.8 µM, the GI50 (SF-268 CNS) was 4.2 µM and the TGI (SF-268 CNS) was 17.5 µM. For the same compound, the GI50 (ACHN renal) was 2.31 µM, the TGI (ACHN renal) was 6.29 µM and the GI50 (T-47D breast) was 3.93 µM. The TGI (T-47D breast) was 20.9 µM, the GI50 (IGROV1 ovarian) was 4.04 µM and the TGI (IGROV1 ovarian) was 14.2 µM. It also gave a GI50 (CCRF-CEM leukemia) of 1.49 µM, a TGI (CCRF-CEM leukemia) of 5.89 µM and a GI50 (HCT-15 colon) of 1.99 µM. For the same compound, the TGI (HCT-15 colon) was 5.26 µM, the GI50 (UACC-62 melanoma) was 2.23 µM and the TGI (UACC-62 melanoma) was 5.7 µM. For the same compound, the GI50 (OVCAR-5 ovarian) was 3.95 µM, the TGI (OVCAR-5 ovarian) was 16.6 µM and the GI50 (KM12 colon) was 3.22 µM. The TGI (KM12 colon) was 10.2 µM, the GI50 (MDA-MB-231 breast) was 5.61 µM and the TGI (MDA-MB-231 breast) was 20 µM. The GI50 (HL-60(TB) leukemia) was 2.56 µM, the TGI (HL-60(TB) leukemia) was 6.82 µM and the GI50 (OVCAR-3 ovarian) was 4.02 µM. It also gave a TGI (OVCAR-3 ovarian) of 12.9 µM, a GI50 (HT29 colon) of 2.47 µM and a TGI (HT29 colon) of 5.37 µM. It also gave a GI50 (M14 melanoma) of 3.27 µM, a TGI (M14 melanoma) of 11.6 µM and a GI50 (DU-145 prostate) of 4.92 µM. It also gave a TGI (DU-145 prostate) of 16.4 µM, a GI50 (HOP-62 NSCLC) of 6.06 µM and a TGI (HOP-62 NSCLC) of 19.7 µM. It also gave a GI50 (NCI-H460 lung) of 2.25 µM, a TGI (NCI-H460 lung) of 5.91 µM and a GI50 (A498 renal) of 12.3 µM. For the same compound, the TGI (A498 renal) was 25.3 µM, the GI50 (HCC-2998 colon) was 12.3 µM and the TGI (HCC-2998 colon) was 25.6 µM. The GI50 (SN12C renal) was 2.94 µM, the TGI (SN12C renal) was 10.9 µM and the GI50 (A549 NSCLC) was 6.14 µM. The TGI (A549 NSCLC) was 23 µM, the GI50 (MCF7 breast) was 0.398 µM and the TGI (MCF7 breast) was 10.3 µM. The GI50 (SF-539 CNS) was 2.96 µM, the TGI (SF-539 CNS) was 10.1 µM and the GI50 (UACC-257 melanoma) was 3.7 µM. It also gave a TGI (UACC-257 melanoma) of 15 µM, a GI50 (SNB-19 CNS) of 12.8 µM and a TGI (SNB-19 CNS) of 26.8 µM. The GI50 (PC-3 prostate) was 4.54 µM, the TGI (PC-3 prostate) was 17.9 µM and the GI50 (UO-31 renal) was 1.86 µM. The TGI (UO-31 renal) was 3.78 µM, the GI50 (HCT-116 colon) was 1.98 µM and the TGI (HCT-116 colon) was 4.07 µM. For the same compound, the GI50 (SNB-75 CNS) was 10.2 µM, the TGI (SNB-75 CNS) was 22.2 µM and the GI50 (MALME-3M melanoma) was 4.83 µM. It also gave a TGI (MALME-3M melanoma) of 19.7 µM, a GI50 (NCI-H522 lung) of 1.95 µM and a TGI (NCI-H522 lung) of 3.88 µM. For the same compound, the GI50 (RXF 393 renal) was 3.11 µM, the TGI (RXF 393 renal) was 11.5 µM and the GI50 (SF-295 CNS) was 10.3 µM. The TGI (SF-295 CNS) was 24.2 µM, the GI50 (CAKI-1 renal) was 5.61 µM and the TGI (CAKI-1 renal) was 19.9 µM. For the same compound, the GI50 (SK-MEL-28 melanoma) was 2.29 µM, the TGI (SK-MEL-28 melanoma) was 5.75 µM and the GI50 (NCI-H226 lung) was 2.96 µM. The TGI (NCI-H226 lung) was 14.3 µM, the GI50 (OVCAR-4 ovarian) was 4.53 µM and the TGI (OVCAR-4 ovarian) was 19.4 µM. The GI50 (BT-549 breast) was 3.79 µM, the TGI (BT-549 breast) was 11.2 µM and the GI50 (786-0 renal) was 2.74 µM. The TGI (786-0 renal) was 7.36 µM.
